The test concerns the target T1, human FXR (NR1H4) (Homo sapiens, UniProt Q96RI1).
T1 sequence (Q96RI1 1-486): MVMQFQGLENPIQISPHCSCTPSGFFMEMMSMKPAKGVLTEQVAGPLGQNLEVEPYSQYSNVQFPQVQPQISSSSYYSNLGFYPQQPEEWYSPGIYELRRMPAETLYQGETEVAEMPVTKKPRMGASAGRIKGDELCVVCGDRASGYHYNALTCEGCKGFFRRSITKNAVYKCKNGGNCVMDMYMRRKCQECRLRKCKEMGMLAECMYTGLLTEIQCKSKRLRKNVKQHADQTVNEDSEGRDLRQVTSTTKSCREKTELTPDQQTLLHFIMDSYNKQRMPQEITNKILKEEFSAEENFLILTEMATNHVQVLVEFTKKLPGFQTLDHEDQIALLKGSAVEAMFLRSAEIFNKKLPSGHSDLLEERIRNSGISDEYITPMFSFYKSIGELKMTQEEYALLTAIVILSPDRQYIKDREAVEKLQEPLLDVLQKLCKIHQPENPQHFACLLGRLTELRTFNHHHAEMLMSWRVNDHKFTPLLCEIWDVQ
Kind of test: Human FXR (NR1H4) Assay: Gal4 promoter driven luciferase reporter transactivation in CHO cells (Indigo Bioscience kit IB00601). Type of test: cell-based. Particulars: for Emax: CHO, efficacy normalized to CDCA set as 100%, read-out: Efficacy (%); for EC50: potency range, Human FXR (NR1H4) reporter assay in CHO cells, read-out: EC50. The text has this:
Human FXR (NR1H4) Assay Determination of a ligand mediated Gal4 promoter driven transactivation to quantify ligand binding mediated activation of FXR. FXR Reporter Assay kit purchased from Indigo Bioscience (Catalogue number: IB00601) to determine the potency and efficacy of compounds that can induce FXR activation. The principle application of this reporter assay system is to quantify functional activity of human FXR. The assay utilizes non-human mammalian cells, CHO (Chinese hamster ovary) cells engineered to express human NR1H4 protein (referred to as FXR). Reporter cells also incorporate the cDNA encoding beetle luciferase which catalyzes the substrates and yields photon emission. Luminescence intensity of the reaction is quantified using a plate-reading luminometer, Envision. Reporter Cells include the luciferase reporter gene functionally linked to an FXR responsive promoter. Thus, quantifying changes in luciferase expression in the treated reporter cells provides a sensitive surrogate measure of the changes in FXR activity. […] The assay is according to the manufacturer's instructions. […] Retrieve Reporter Cells from −80° C. storage. Perform a rapid thaw of the frozen cells by transferring a 10 ml volume of 37° C. cell recovery medium into the tube of frozen cells. […] Retrieve the tube of Reporter Cell Suspension from the water bath. […] Dispense 90 μl of cell suspension into each well of the 96-well Assay Plate. Transfer the plate into 37° C. incubator, allowing the cells adherent to the bottom of the well. Dilute compounds in Dilution Plate (DP), and administrate to cells at Assay Plate (AP). […] Cells were incubated for additional 22 hours before luciferase activities were measured. Thirty minutes before intending to quantify FXR activity, remove Detection Substrate and Detection Buffer from the refrigerator and place them in a low-light area so that they may equilibrate to room temperature. Remove the plate's lid and discard all media contents by ejecting it into an appropriate waste container. Gently tap the inverted plate onto a clean absorbent paper towel to remove residual droplets. Cells will remain tightly adhered to well bottoms. Add 100 μl of luciferase detection reagent to each well of the assay plate. Allow the assay plate to rest at room temperature for at least 5 minutes following the addition of LDR. Set the instrument (Envision) to perform a single 5 second “plate shake” prior to reading the first assay well. Read time may be 0.5 second (500 mSec) per well.

What is called EC50 is the concentration that produces a half-maximal response.

With `C[C@H](NC(=O)N1C2CCC1CC(OCc1c(-c3c(Cl)cccc3Cl)noc1C1CC1)C2)c1ccccc1` (some centres unmarked) [Example 705], the Emax came out at 242% and the EC50 is less than 10 nM.
Take `O=C(Nc1cccc(-c2ccc(C(F)(F)F)nc2)c1)N1C2CCC1CC(OCc1c(-c3c(Cl)cccc3Cl)noc1C1CC1)C2` (centres unmarked) [Example 706]: the Emax was 207% and the EC50 was 10 to 100 nM.
For the molecule `O=C(c1ccc(-c2cccc(NC(=O)N3C4CCC3CC(OCc3c(-c5c(Cl)cccc5Cl)noc3C3CC3)C4)c2)cc1)N1CCOCC1` (centres unmarked) [Example 707], the Emax came out at 220% and the EC50 lay within 10 to 100 nM.
The matching figures for `O=C(Nc1cccc(-c2cnn(C3CCOCC3)c2)c1)N1C2CCC1CC(OCc1c(-c3c(Cl)cccc3Cl)noc1C1CC1)C2` (centres unmarked) [Example 708]: 209% and less than 10 nM.
The like results for `COC(=O)c1ccc(NC(=O)N2C3CCC2CC(OCc2c(-c4c(Cl)cccc4Cl)noc2C2CC2)C3)c(C(F)(F)F)c1` (centres unmarked) [Example 709] were, in that order, 119% and 100 to 1000 nM.
With `O=C(O)c1ccc(NC(=O)N2C3CCC2CC(OCc2c(-c4c(Cl)cccc4Cl)noc2C2CC2)C3)c(C(F)(F)F)c1` (centres unmarked) [Example 710], the Emax came to 170% and the EC50 was 10 to 100 nM.
The matching figures for `O=C(Nc1cccc(C2=CCCCC2)c1)N1C2CCC1CC(OCc1c(-c3c(Cl)cccc3Cl)noc1C1CC1)C2` (centres unmarked) [Example 711]: 157% and less than 10 nM.
Take `O=C(Nc1cccc(C2CCCCC2)c1)N1C2CCC1CC(OCc1c(-c3c(Cl)cccc3Cl)noc1C1CC1)C2` (centres unmarked) [Example 712]: the Emax was determined as 144% and the EC50 lay within 10 to 100 nM.
The matching figures for `CC(=O)N1CC=C(c2cccc(NC(=O)N3C4CCC3CC(OCc3c(-c5c(Cl)cccc5Cl)noc3C3CC3)C4)c2)CC1` (centres unmarked) [Example 713]: 162% and less than 10 nM.
Consider `CC(=O)N1CCC(c2cccc(NC(=O)N3C4CCC3CC(OCc3c(-c5c(Cl)cccc5Cl)noc3C3CC3)C4)c2)CC1` (centres unmarked) [Example 714], for which the Emax worked out at 156% and the EC50 lay in the range of 10 to 100 nM.
`CN1CC=C(c2cccc(NC(=O)N3C4CCC3CC(OCc3c(-c5c(Cl)cccc5Cl)noc3C3CC3)C4)c2)CC1` (centres unmarked) [Example 715]: the Emax came to 123% and the EC50 lay in the range of 10 to 100 nM.
The matching figures for `COC(=O)c1ccc(NC(=O)N2C3CCC2CC(OCc2c(-c4c(Cl)cccc4Cl)noc2C2CC2)C3)c(OC(F)(F)F)c1` (centres unmarked) [Example 716]: 43% and 100 to 1000 nM.
The matching figures for `O=C(O)c1ccc(NC(=O)N2C3CCC2CC(OCc2c(-c4c(Cl)cccc4Cl)noc2C2CC2)C3)c(OC(F)(F)F)c1` (centres unmarked) [Example 717]: 149% and 100 to 1000 nM.
Turning to `CCOc1cc(C(=O)OC)ccc1NC(=O)N1C2CCC1CC(OCc1c(-c3c(Cl)cccc3Cl)noc1C1CC1)C2` (centres unmarked) [Example 718], the Emax turned out to be 119% and the EC50 lay within 10 to 100 nM.
With `COC(=O)c1ccc(NC(=O)N2C3CCC2CC(OCc2c(-c4c(Cl)cccc4Cl)noc2C2CC2)C3)c(OC(C)C)c1` (centres unmarked) [Example 719], the Emax amounted to 104% and the EC50 lay in the range of 100 to 1000 nM.
Turning to `CCOc1cc(C(=O)O)ccc1NC(=O)N1C2CCC1CC(OCc1c(-c3c(Cl)cccc3Cl)noc1C1CC1)C2` (centres unmarked) [Example 720], the Emax came out at 171% and the EC50 is less than 10 nM.
The matching figures for `CC(C)Oc1cc(C(=O)O)ccc1NC(=O)N1C2CCC1CC(OCc1c(-c3c(Cl)cccc3Cl)noc1C1CC1)C2` (centres unmarked) [Example 721]: 133% and 10 to 100 nM.
The like results for `COC(=O)c1ccc(F)c(NC(=O)N2C3CCC2CC(OCc2c(-c4c(Cl)cccc4Cl)noc2C2CC2)C3)c1` (centres unmarked) [Example 722] were, in that order, 115% and less than 10 nM.
On to `O=C(O)c1ccc(F)c(NC(=O)N2C3CCC2CC(OCc2c(-c4c(Cl)cccc4Cl)noc2C2CC2)C3)c1` (centres unmarked) [Example 723], for which the Emax turned out to be 140% and the EC50 was 100 to 1000 nM.
